The target of experiment [1] is T1, Substance-K receptor (Cavia porcellus) (UniProt Q64077).
T1 sequence (whole entry): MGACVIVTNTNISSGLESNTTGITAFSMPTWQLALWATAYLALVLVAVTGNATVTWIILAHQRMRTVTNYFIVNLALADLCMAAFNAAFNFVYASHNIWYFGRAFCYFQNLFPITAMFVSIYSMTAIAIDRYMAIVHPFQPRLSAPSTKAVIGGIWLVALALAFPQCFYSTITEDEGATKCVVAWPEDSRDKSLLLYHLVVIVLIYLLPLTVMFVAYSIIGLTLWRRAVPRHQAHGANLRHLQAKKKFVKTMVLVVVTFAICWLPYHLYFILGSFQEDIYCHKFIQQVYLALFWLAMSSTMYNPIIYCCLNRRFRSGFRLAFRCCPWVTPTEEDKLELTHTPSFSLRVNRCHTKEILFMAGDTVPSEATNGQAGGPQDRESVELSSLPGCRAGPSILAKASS
Description: Antagonistic activity against Tachykinin receptor 2 binding to [b-Ala8] NKA(4-10) in isolated guinea pig trachea.

Experiment [2] in a line: Tested for the ability to inhibit maximum contraction obtained in the presence of [b-Ala8] NKA(4-10) in isolated guinea pig trachea.
Another experiment has as its target T2, Substance-K receptor (Bos taurus, UniProt P05363).
T2 sequence (P05363 whole entry): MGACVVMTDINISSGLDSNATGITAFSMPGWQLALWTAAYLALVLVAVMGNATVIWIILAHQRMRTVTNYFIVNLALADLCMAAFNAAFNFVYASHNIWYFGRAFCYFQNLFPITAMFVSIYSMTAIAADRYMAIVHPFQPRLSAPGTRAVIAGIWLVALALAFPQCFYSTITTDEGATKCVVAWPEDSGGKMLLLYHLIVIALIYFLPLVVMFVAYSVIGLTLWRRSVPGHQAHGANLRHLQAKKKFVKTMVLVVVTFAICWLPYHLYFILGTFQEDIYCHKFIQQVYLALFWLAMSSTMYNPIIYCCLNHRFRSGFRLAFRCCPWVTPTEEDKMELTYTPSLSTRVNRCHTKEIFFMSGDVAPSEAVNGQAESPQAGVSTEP
Kind of experiment: Binding affinity against bovine Tachykinin receptor 2.

Some results are limits rather than exact numbers.

These results are taken from ChEMBL document CHEMBL1137857, “Design and synthesis of substituted N-methylbenzamide analogues derived from SR 48,968 as neurokinin-2 receptor antagonists” (Bioorg Med Chem Lett, 2004).

By pKb is commonly meant the Kb on a negative log10 scale, so that one unit is a factor of ten. In general, Ki refers to the equilibrium dissociation constant of an inhibitor or competing ligand from its target. Lower therefore signals a stronger hold on the target.

In experiment [1], `CN(C[C@H](CCN1CCC(O)(c2ccccc2)CC1)c1ccc(Cl)c(Cl)c1)C(=O)c1ccc([N+](=O)[O-])cc1` showed a pKb of 8.55. The Response in experiment [2] is recorded as 98%.

For `CN(C[C@H](CCN1CCC(O)(c2ccccc2)CC1)c1ccc(Cl)c(Cl)c1)C(=O)c1ccc(N=C=S)cc1`, the pKb in experiment [1] was below 8. Also, the Response in experiment [2] amounted to 97.6%.

`CN(C[C@H](CCN1CCC(O)(c2ccccc2)CC1)c1ccc(Cl)c(Cl)c1)C(=O)c1ccc(N)cc1`: in experiment [1], the pKb stood at 9.1. Further, in experiment [2], the Response is on record as 95.9%.

In experiment [1], `CN(C[C@H](CCN1CCC(O)(c2ccccc2)CC1)c1ccc(Cl)c(Cl)c1)C(=O)c1ccccc1NC(=O)CBr` came in with a pKb below 8. For the same compound, the Response in experiment [2] is 97.1%.

For the compound `CN(C[C@H](CCN1CCC(O)(c2ccccc2)CC1)c1ccc(Cl)c(Cl)c1)C(=O)c1ccc(F)cc1`, the pKb in experiment [1] was 9.7. Further, the Response in experiment [2] is on record as 94.7%.

The compound `CC(=O)Nc1cccc(C(=O)N(C)C[C@H](CCN2CCC(O)(c3ccccc3)CC2)c2ccc(Cl)c(Cl)c2)c1` returned a pKb in experiment [1] below 8. Also, the Response in experiment [2] worked out at 96.3%.

`CN(C[C@H](CCN1CCC(O)(c2ccccc2)CC1)c1ccc(Cl)c(Cl)c1)C(=O)c1cccc([N+](=O)[O-])c1`: the pKb in experiment [1] is below 8. In addition, the Response in experiment [2] is listed as 98.6%.

As for `CN(C[C@H](CCN1CCC(O)(c2ccccc2)CC1)c1ccc(Cl)c(Cl)c1)C(=O)c1ccc(NC(=O)CBr)cc1`, in experiment [1], the pKb was 8.3. For the same compound, the Response in experiment [2] is listed as 96%.

In the case of `CC(=O)NC1(c2ccccc2)CCN(CCC(CN(C)C(=O)c2ccccc2)c2ccc(Cl)c(Cl)c2)CC1` (single isomer, unassigned) [SAREDUTANT], the inhibitory constant (Ki) on Substance-K receptor was 0.5 nM. For the same compound, the pKb in experiment [1] stood at 9.1.

`CN(C[C@H](CCN1CCC(O)(c2ccccc2)CC1)c1ccc(Cl)c(Cl)c1)C(=O)c1ccccc1N=C=S`: the pKb in experiment [1] is 8.5. Moreover, the Response in experiment [2] came to 95.5%.

On to `CN(C[C@H](CCN1CCC(O)(c2ccccc2)CC1)c1ccc(Cl)c(Cl)c1)C(=O)c1ccccc1`, for which the Response in experiment [2] turned out to be 93.3%.

In turn, `CC(=O)Nc1ccc(C(=O)N(C)C[C@H](CCN2CCC(O)(c3ccccc3)CC2)c2ccc(Cl)c(Cl)c2)cc1` yielded a pKb in experiment [1] of 8.4. Besides, the Response in experiment [2] amounted to 96.6%.

For the compound `CN(C[C@H](CCN1CCC(O)(c2ccccc2)CC1)c1ccc(Cl)c(Cl)c1)C(=O)c1ccccc1N`, the pKb in experiment [1] is 9.4. The Response in experiment [2] came out at 98.2%.

The compound `CN(C[C@H](CCN1CCC(O)(c2ccccc2)CC1)c1ccc(Cl)c(Cl)c1)C(=O)c1ccccc1[N+](=O)[O-]` came in with a pKb in experiment [1] of 8.5. In addition, the Response in experiment [2] was found to be 92.7%.

In experiment [1], `CC(=O)Nc1ccccc1C(=O)N(C)C[C@H](CCN1CCC(O)(c2ccccc2)CC1)c1ccc(Cl)c(Cl)c1` displayed a pKb below 8. The Response in experiment [2] was determined as 98.3%.

For `CN(C[C@H](CCN1CCC(O)(c2ccccc2)CC1)c1ccc(Cl)c(Cl)c1)C(=O)c1cccc(N)c1`, the pKb in experiment [1] came to 9.4. The Response in experiment [2] was 97.4%.

In the case of `CN(C[C@H](CCN1CCC(O)(c2ccccc2)CC1)c1ccc(Cl)c(Cl)c1)C(=O)c1cccc(N=C=S)c1`, the pKb in experiment [1] is below 8. Moreover, the Response in experiment [2] worked out at 95.8%.

On to `CN(C[C@H](CCN1CCC(O)(c2ccccc2)CC1)c1ccc(Cl)c(Cl)c1)C(=O)c1cccc(NC(=O)CBr)c1`, for which the pKb in experiment [1] was below 8. In experiment [2], the Response was 98%.

Compound `CN(CC(CCN1CCC(O)(c2ccccc2)CC1)c1ccc(Cl)c(Cl)c1)C(=O)c1ccccc1` (stereo unspecified) returned a Ki on Substance-K receptor of 1 nM.
